The record followed here is patent publication US8901129B2, “Methods of facilitating neural cell survival using GDNF family ligand (GFL) mimetics or RET signaling pathway activators” (GeneCode AS, priority 2009, dated 2014).

Structures are written as SMILES.

In series [1] the test system is MG87RET murine fibroblasts. The experiment in a line: Cell viability, CelTiterGlo (FIG. 8). The note with it: concentrations above 2 μM, 48 hours. Format: cell-based. Here is the method: The test compounds were transferred into in 384-well culture plate using Echo acoustic dispenser (Labcyte Inc.) in 2.5-125 nl volume. Trypsinized MG87RET murine fibroblasts were seeded at 20 000 cells/ml (500 cells/well) in the presence of each compound dissolved in DMSO at the indicated concentration. After brief mixing on a horizontal shaker, the plates were centrifuged and transferred into the incubator. Two days (48 hours) after addition of cells to compounds, the viability of the cells was evaluated using CelTiterGlo reagent (Promega).

The test system of series [2] is GFRα3/RET-expressing reporter cell line. Description: Reporter-gene luciferase activity assay, dose-response (FIG. 5). Format: cell-based, human. The note with it: GFRα3/RET cells; 1-50 μM, 24 h. The text has this:
Full-length flag-tagged rat Gfrα1 cDNA (Leppänen et al., 2004) subcloned into in pcDNA3 (Invitrogen). Full-length human GFRα1 cDNA (Sidorova et al., unpublished) subcloned in pcDNA6 (Invitrogen). Full-length human GFRα3 cDNA (Wang et al., 2006). Full-length human RET (long isoform) (Runeberg-Roos et al., 2007) in pCR3.1 (Invitrogen). The MAPK activation detection system (Baloh et al., 2000) and PathDetect Elk-1 (Stratagene) both of which include two plasmids. First one constitutively expresses MAPK pathway specific fusion transactivator, that consists of activation domain of Elk-1 and DNA-binding domain of the yeast GAL4 protein (Gal4-Elk1). The other plasmid, Gal4-Luc, carries luciferase gene under the control of a synthetic promoter containing the yeast GAL4 binding sequences.
(§1) Cells were plated on 96-well plates (or 384-well) in cell density 20 000 (or 5 000 for 384-well format) cells per well in DMEM, 10% FBS, 100 μg/ml Normocin, 2 μg/ml puromycin, 500 μg/ml of G418, 15 mM HEPES, pH 7.2 one day before assay. The following day, the compounds were added to a final concentration of 1-50 μM. Structures of the compounds are shown in the description of FIG. 5, above. Cells were allowed to produce luciferase for 24 h, then lysed in 20 μl of 1×Cell culture lysis reagent (Promega) and freeze-thawed once to ensure complete lysis. Then 5 μl of the lysate was mixed (on ice) with 20 μl of luciferase assay substrate (Promega) in a well of black Isoplate (PerkinElmer). Luminescence was counted on MicroBeta 2 counter (PerkinElmer) twice. Data are presented as fold induction, where the corresponding concentration of DMSO was used as a reference.

Series [3] deals with RET-expressing reporter cell line (RET alone). Described as above. In kind it is cell-based. The note with it: cells expressing RET alone; 1-50 μM, 24 h. How it is done:
(§2) Generation of stable cell lines. MG87RET murine fibroblast were plated on […] dishes and transfected with 4 μg of G4-Luc, Gal4-Elk (Baloh et al., 2000) and GFRα1 expressing plasmid (“αLUC” cells) or empty vector (“NOα” cells) containing neomycin-resistance gene in ratio 4:1:1 using Lipofectamine 2000 (Invitrogen) for DNA delivery as described by manufacturer. The following day, cells were trypsinized and plated in low density on 10-cm tissue culture dishes. Stable transformants were selected in the presence of 500-750 μg/ml geneticin (Invitrogen). Established cell lines were maintained in DMEM, 10% fetal bovine serum (FBS), 100 μg/ml Normocin (Invivogene), 2 μg/ml of puromycin, 500 μg/ml of geneticin, 15 mM HEPES, pH 7.2. Pathdetect Elk-1 system and human GFRα1-expressing plasmid (“Strat-Luc” cells) or empty vector (control cell line “NOStratis”) cells were selected and maintained in the DMEM, 10% FBS, 100 μg/ml Normocin (Invivogene), 2 μg/ml of puromycin, 500 μg/ml of G418, 2 μg/ml of blasticidin S, 15 mM HEPES, pH 7.2.
as §1

The test system of series [4] is GFRα1/RET-expressing cells. The description is as above. As to conditions: 1-50 μM, 24 h. Format: cell-based. How it is done: as §2, §1
The target of another series is T1, GFRα1/RET (Homo sapiens, UniProt P07949+P56159).
T1 construct: Full-length human GFRα1 cDNA (Sidorova et al., unpublished) subcloned in pcDNA6; expressed in transfected cells; host or cells: MG87RET murine fibroblasts transiently transfected with GFRα1
T1 sequence (P56159 25-429 limits assumed, species assumed): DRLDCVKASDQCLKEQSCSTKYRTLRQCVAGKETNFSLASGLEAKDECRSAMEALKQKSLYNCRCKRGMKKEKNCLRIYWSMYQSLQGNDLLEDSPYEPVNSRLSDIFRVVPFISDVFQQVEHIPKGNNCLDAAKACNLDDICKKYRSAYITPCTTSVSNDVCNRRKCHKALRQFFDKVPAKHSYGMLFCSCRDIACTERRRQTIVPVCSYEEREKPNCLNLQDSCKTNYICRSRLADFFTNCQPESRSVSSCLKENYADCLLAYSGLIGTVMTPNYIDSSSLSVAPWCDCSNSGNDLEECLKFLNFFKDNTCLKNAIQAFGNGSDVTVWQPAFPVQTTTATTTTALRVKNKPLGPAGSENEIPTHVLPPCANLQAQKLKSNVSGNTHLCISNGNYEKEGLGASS
T1 sequence (P07949 29-1114, species assumed): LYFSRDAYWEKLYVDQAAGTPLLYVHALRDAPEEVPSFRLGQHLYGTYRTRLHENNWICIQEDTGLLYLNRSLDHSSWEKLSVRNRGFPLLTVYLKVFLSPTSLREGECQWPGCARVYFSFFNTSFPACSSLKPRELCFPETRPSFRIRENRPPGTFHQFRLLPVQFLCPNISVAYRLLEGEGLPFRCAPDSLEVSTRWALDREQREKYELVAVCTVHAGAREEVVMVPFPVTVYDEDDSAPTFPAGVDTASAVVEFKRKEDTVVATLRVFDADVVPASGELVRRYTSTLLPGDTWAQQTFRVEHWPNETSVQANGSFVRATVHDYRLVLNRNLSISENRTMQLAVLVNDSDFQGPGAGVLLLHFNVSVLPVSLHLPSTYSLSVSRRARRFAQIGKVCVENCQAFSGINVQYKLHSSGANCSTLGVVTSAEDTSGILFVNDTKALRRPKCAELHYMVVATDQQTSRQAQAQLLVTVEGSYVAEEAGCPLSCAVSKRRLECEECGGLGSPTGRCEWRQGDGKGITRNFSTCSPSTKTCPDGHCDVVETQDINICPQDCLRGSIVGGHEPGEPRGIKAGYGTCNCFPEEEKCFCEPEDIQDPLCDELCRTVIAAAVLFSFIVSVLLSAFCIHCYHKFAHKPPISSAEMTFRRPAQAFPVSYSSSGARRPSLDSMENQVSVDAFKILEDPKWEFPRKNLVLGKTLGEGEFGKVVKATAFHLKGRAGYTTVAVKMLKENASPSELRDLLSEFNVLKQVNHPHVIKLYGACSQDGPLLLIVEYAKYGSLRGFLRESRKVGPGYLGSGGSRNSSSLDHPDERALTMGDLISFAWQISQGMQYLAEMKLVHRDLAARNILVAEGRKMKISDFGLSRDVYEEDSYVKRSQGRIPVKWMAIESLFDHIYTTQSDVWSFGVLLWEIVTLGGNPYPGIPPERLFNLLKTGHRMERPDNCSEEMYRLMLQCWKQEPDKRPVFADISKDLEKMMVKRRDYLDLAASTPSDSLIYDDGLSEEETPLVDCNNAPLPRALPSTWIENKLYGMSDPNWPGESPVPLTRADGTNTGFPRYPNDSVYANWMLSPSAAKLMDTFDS
Description: RET phosphorylation by BT compounds, IP and Western blotting (FIG. 6A). Format: cell-based. As to conditions: 100 μM, 15 min; MG87 RET fibroblasts transfected with GFRα1. How it is done: (§3) MG87RET cells were plated on 35 mm tissue culture dishes the day before the experiment. Cells were transfected with GFRα1, GFRα3 or with an vector encoding for GFP. On the day of the experiment cells were starved for 4 hours in serum-free DMEM and stimulated with the investigated compounds (structures shown in the description of FIG. 6, above) at 100 μM concentration or with 100 ng/ml of GDNF or ARTN (positive control) for 15 min. Then cells were washed once with ice-cold PBS containing 1 mM Na3VO4 and lysed on ice in 1 ml per well of RIPA-modified buffer (50 mM Tris-HCl, pH 7.4, 150 mM NaCl, 1 mM EDTA, 1% NP-40, 1% TX-100, 10% glycerol, EDTA-free protease inhibitor cocktail (Roche), 1 mM Na3VO4, 2.5 mg/ml of sodium deoxycholate, 1 mM PMSF. Ret was immunoprecipitated by anti-RET C-20 antibodies (Santa-Cruz Biotechnology, Inc.). Precipitated proteins were resolved on 7.5% SDS-PAGE and then transferred onto a nitrocellulose membrane. Membrane was blocked for 15 min at room temperature by 10% nonfat dry milk in TBS-T and probed with anti-phosphotyrosine antibodies (clone 4G10, Upstate Biotechnology) diluted 1:1000 in TBS-T containing 3% nonfat dry milk for 2 hours at room temperature. The membranes were washed 3 times for 5 min in TBS-T and incubated in the 1:3000 solution of secondary anti-mouse antibodies conjugated with HRP (DAKO) diluted in TBS-T containing 3% nonfat dry milk for 45 min at room temperature. Membranes were washed with TBS-T for 5×10 min. Stained bands were visualized with ECL reagent (Pierce) using LAS3000 imaging program. To confirm equal loading of the proteins, membranes were probed with anti-RET C-20 antibodies (1:500, Santa-Cruz Biotechnology, inc.) after stripping. We used secondary anti-goat antibodies conjugated with HRP (1:1500, DAKO) to detect C-20.
A general note: A western blot detects proteins with antibodies after separation by electrophoresis.

The target of the next series is T2, GFRα3/RET (Homo sapiens, UniProt O60609+P07949).
T2 construct: Full-length human GFRα3 cDNA (Wang et al., 2006); expressed in transfected cells; host or cells: MG87RET murine fibroblasts transiently transfected with GFRα3
T2 sequence (O60609 32-374 limits assumed): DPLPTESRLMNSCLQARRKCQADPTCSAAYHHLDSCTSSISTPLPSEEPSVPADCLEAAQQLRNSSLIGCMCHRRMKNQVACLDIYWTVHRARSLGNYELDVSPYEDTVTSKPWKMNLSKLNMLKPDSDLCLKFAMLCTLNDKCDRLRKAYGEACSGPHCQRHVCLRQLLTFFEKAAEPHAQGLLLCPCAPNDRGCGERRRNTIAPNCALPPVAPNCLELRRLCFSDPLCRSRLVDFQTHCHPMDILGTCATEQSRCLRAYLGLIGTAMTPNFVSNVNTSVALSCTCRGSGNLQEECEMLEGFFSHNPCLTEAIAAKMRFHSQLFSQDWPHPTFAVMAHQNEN
T2 sequence (P07949 29-1114): as the sequence (P07949 29-1114, species assumed) above
Description: RET phosphorylation by BT compounds, IP and Western blotting (FIG. 6B). In kind it is cell-based. The note with it: 100 μM, 15 min; MG87 RET fibroblasts transfected with GFRα3. How it is done: as §3

In the case of `CCN(CC)CCCC(C)Nc1cc(/C=C/c2ccccc2Cl)nc2cc(Cl)ccc12` (stereo not drawn) [BT10], in series [1], the “toxicity (cell viability)” value was “significant toxicity”.

With `COc1ccc(S(=O)(=O)N2CCC(Cc3ccccc3)CC2)cc1N1CCN(C(=O)c2cc(F)ccc2C(F)(F)F)CC1` [BT17], the results for the “induction of luciferase expression” value in series [2], in series [3] and in series [4] were “in a dose-dependent manner induce luciferase expression”, “No significant effect” and “in a dose-dependent manner induce luciferase expression”, respectively. In addition, the “RET phosphorylation via GFRα1” value at GFRα1/RET is “likely the weaker GFRα1/RET agonists”. On GFRα3/RET, the “RET phosphorylation via GFRα3” value is “likely the weaker GFRα3/RET agonists”.
